# Biological target: T1, recombinant human histamine N-methyltransferase (rhHNMT) (Homo sapiens, UniProt P50135)
# T1 construct: gene HNMT
# Test: recombinant enzyme assay, LC-MS/MS of histamine and methylhistamine; Lineweaver-Burk analysis
# Format: biochemical
# T1 sequence (P50135 whole entry): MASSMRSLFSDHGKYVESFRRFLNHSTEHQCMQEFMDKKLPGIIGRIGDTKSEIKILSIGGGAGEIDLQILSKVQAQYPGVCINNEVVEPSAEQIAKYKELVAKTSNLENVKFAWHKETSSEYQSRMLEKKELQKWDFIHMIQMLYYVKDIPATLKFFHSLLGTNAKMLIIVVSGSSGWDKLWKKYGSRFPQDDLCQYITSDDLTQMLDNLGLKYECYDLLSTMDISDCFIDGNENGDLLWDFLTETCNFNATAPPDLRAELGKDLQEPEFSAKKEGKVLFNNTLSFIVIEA
compound,measurement,value
"C[N+](C)(C)[C@@H](Cc1c[nH]c(=S)[nH]1)C(=O)[O-] [ERGO, ergothioneine]","recombinant enzyme assay, LC-MS/MS of histamine and methylhistamine; Lineweaver-",Lineweaver–Burk analysis revealed that ERGO competitively inhibited rhHNMT against histamine (Fig. 6c)
